From patent US20250034088A1, “LIPIDS AND USES THEREOF” (TAIWAN BIO-MANUFACTURING CORPORATION, priority 2023, published 2025) come the findings set out here.

In data set [1] the test system is HEPG2 cells. Nature of the data set: Cytotoxicity in HEPG2 cells (Cell Counting Kit-8). Type of data set: cell-based. Particulars: FLuc mRNA-LNPs, 18 hours. The protocol: (§1) To investigate the potential and cytotoxicity of mRNA-LNP made from novel lipids, FLuc mRNA (TRILINK®) was encapsulated into LNPs and transfected to the cell line. HEPG2 cells were maintained at 37° C. under 5% CO2 in a DMEM medium with 10% fetal bovine serum. Cells were seeded at 4×10^4 cells/well and treated with FLuc mRNA-LNPs for 18 hours while cell confluency reach 70%. To explore transfection efficiency, HEPG2 cells were treated with D-luciferin and mixed thoroughly for another incubation of 5 min at 37° C. The luminescence intensity was recorded using M200 Microplate Reader (TECAN®). Cell viability was evaluated by Cell Counting Kit-8 (SIGMA-ALDRICH®) and the absorbance was measured at 450 nm.

For data set [2], the system named is HEPG2 cells. Nature of the data set: Transfection efficiency of FLuc mRNA-LNPs in HEPG2 cells (luminescence). Type of data set: cell-based. To be noted: 18 hours. As for the experimental part: as §1
A short description of data set [3]: LNP hydrodynamic size, polydispersity index and zeta potential by Zetasizer. Type of data set: physicochemical. Particulars: FLuc mRNA-loaded LNP. The protocol: (§2) The Firefly luciferase (FLuc) reporter mRNA-loaded lipid nanoparticles (LNPs) were formulated by NANOASSEMBLR® IGNITE™. Briefly, the lipid, cholesterol, 1,2-dimyristoyl-rac-glycero-3-methoxypolyethylene glycol-2000 (DMG-PEG2000), and […] (DSPC) mixture was prepared in ethanolic solution at the % mole ratio of […]. Three units of FLuc mRNA was dissolved in 25 mM sodium acetate pH 5.0 buffer and one unit of lipid mixture were rapidly combined in the microfluidic mixing cartridge at an amine-to-phosphate (N/P) ratio constant at 6, and the instrument flow rate set at 12 mL/min. The mRNA-LNPs performed a 40-fold dilution of calcium and magnesium-free phosphate-buffered saline (PBS) to reach pH neutral. Then, LNPs were concentrated using Amicon® Ultra-15 Centrifugal Filter Unit.
The mRNA-LNPs were characterized in terms of hydrodynamic size (z-average diameter), zeta potential, and polydispersity index by ZETASIZER™ PRO BLUE (MALVERN PANALYTICAL®). A QUANT-IT™ RIBOGREEN assay kit (THERMOFISHER®) was conducted to identify the mRNA concentration and encapsulation efficiency. In brief, mRNA-LNPs were diluted in equal volumes of Tris/EDTA (TE) buffer or 2% Triton X-100 in TE buffer. After that, a RIBOGREEN reagent was added to each sample and incubated at 37° C. in absence of light for 15 min. The fluorescence intensity (Ex/Em 480/520 nm) was detected on a TECAN™ Microplate reader. The encapsulation efficiency (E.E) can be calculated by the formula: […]

A short description of data set [4]: mRNA encapsulation efficiency by RiboGreen assay. Type of data set: physicochemical. To be noted: FLuc mRNA-loaded LNP made with the lipid; for Encap)-sulation (%: Table 1. As for the experimental part: as §2
The mRNA-LNPs were characterized in terms of hydrodynamic size (z-average diameter), zeta potential, and polydispersity index by ZETASIZER™ PRO BLUE (MALVERN PANALYTICAL®). A QUANT-IT™ RIBOGREEN assay kit (THERMOFISHER®) was conducted to identify the mRNA concentration and encapsulation efficiency. In brief, mRNA-LNPs were diluted in equal volumes of Tris/EDTA (TE) buffer or 2% Triton X-100 in TE buffer. After that, a RIBOGREEN reagent was added to each sample and incubated at 37° C. in absence of light for 15 min. The fluorescence intensity (Ex/Em 480/520 nm) was detected on a TECAN™ Microplate reader. The encapsulation efficiency (E.E) can be calculated by the formula:
E.E(%)=(Total mRNA concentration−Unencapsulated mRNA concentration)/(Total mRNA concentration)×100%

For `CCCCCCCCC(CCCCCC)C(=O)OCCCCCCO[C@H]1CN(CCCO)C[C@H]1OCCCCCCOC(=O)C(CCCCCC)CCCCCCCC` (stereo partly drawn) [Compound 14, (((3S,4R)-1-(3-hydroxypropyl)pyrrolidine-3,4-diyl)bis(oxy))bis(hexane-6,1-diyl)bis(hexyldecanoate)], the “Cytotoxicity in HEPG2” value in the data set with HEPG2 cells [1] was “— (The toxicity of compounds 11 and 14 is less than 10%)”. Further, the “Transfection efficiency (relative to SM-102, %)” value in the data set on HEPG2 cells [2] was 105%.

For the compound `CCCCCCCCCCC(CCCCCCCC)COC(=O)CCCCO[C@H]1CN(CCCCCCO)C[C@H]1OCCCCC(=O)OCC(CCCCCCCC)CCCCCCCCCC` (stereo partly drawn) [Compound 19, bis(2-octyldodecyl)5,5′-(((3R,4S)-1-(6-hydroxyhexyl)pyrrolidine-3,4-diyl)bis(oxy))dipentanoate], in data set [3] (Table 1), the “LNP zeta potential (mV)” value stood at 6.25 mV and the PDI stood at 0.05. In addition, the “LNP size (nm)” value in data set [3] (z-average diameter, Table 1) is given as 79.74 nm. Besides, the “Encap)-sulation (%” value in data set [4] is recorded as 97.31%.

As to `CCCCCCCCC(CCCCCCCC)OC(=O)CCO[C@H]1CN(CCO)C[C@H]1OCCC(=O)OC(CCCCCCCC)CCCCCCCC` [Compound 1, di(heptadecan-9-yl)3,3′-(((3R,4S)-1-(2-hydroxyethyl)pyrrolidine-3,4-diyl)bis(oxy))dipropionate], in data set [3] (Table 1), the “LNP zeta potential (mV)” value is −7.06 mV and the PDI was 0.026. In addition, in data set [3] (z-average diameter, Table 1), the “LNP size (nm)” value worked out at 73.80 nm. Moreover, the “Encap)-sulation (%” value in data set [4] was 98.5%.

For `CCCCCCCCCCC(CCCCCCCC)COC(=O)CCCCO[C@H]1CN(CCCO)C[C@H]1OCCCCC(=O)OCC(CCCCCCCC)CCCCCCCCCC` (stereo partly drawn) [Compound 17, bis(2-octyldodecyl)5,5′-(((3R,4S)-1-(3-hydroxypropyl)pyrrolidine-3,4-diyl)bis(oxy))dipentanoate], in data set [3] (Table 1), the “LNP zeta potential (mV)” value worked out at 8.00 mV and the PDI is listed as 0.03. The “LNP size (nm)” value in data set [3] (z-average diameter, Table 1) worked out at 95.10 nm. The “Encap)-sulation (%” value in data set [4] is given as 98.16%.

With `CCCCCCCCC(CCCCCCCC)OC(=O)CCO[C@H]1CN(CCCO)C[C@H]1OCCC(=O)OC(CCCCCCCC)CCCCCCCC` [Compound 2], in data set [3] (Table 1), the “LNP zeta potential (mV)” value was −5.73 mV and the PDI was determined as 0.033. Also, the “LNP size (nm)” value in data set [3] (z-average diameter, Table 1) is reported as 74.65 nm. For the same compound, in data set [4], the “Encap)-sulation (%” value was 98.1%.

On to `CCCCCCC(CCCC)COC(=O)CCCCO[C@H]1CN(CCCCCCO)C[C@H]1OCCCCC(=O)OCC(CCCC)CCCCCC` (stereo partly drawn) [Compound 22, bis(2-butyloctyl) 5,5′-(((3R,4S)-1-(6-hydroxyhexyl)pyrrolidine-3,4-diyl)bis(oxy))dipentanoate], for which, in data set [3] (Table 1), the “LNP zeta potential (mV)” value is 10.78 mV and the PDI worked out at 0.05. Besides, the “LNP size (nm)” value in data set [3] (z-average diameter, Table 1) is on record as 148.20 nm. Moreover, the “Encap)-sulation (%” value in data set [4] was 98.18%.

Consider `CCCCCCCCC(CCCCCCCC)OC(=O)CCO[C@H]1CN(CCCCO)C[C@H]1OCCC(=O)OC(CCCCCCCC)CCCCCCCC` [Compound 7, di(heptadecan-9-yl)3,3′-(((3R,4S)-1-(4-hydroxybutyl)pyrrolidine-3,4-diyl)bis(oxy))dipropionate], for which, in data set [3] (Table 1), the “LNP zeta potential (mV)” value is 2.41 mV and the PDI came out at 0.025. Further, the “LNP size (nm)” value in data set [3] (z-average diameter, Table 1) is listed as 87.10 nm. Also, the “Encap)-sulation (%” value in data set [4] was 97.22%.

In the case of `CCCCCCCCC(CCCCCCCC)OC(=O)CCCCCO[C@H]1CN(CCCCCO)C[C@H]1OCCCCCC(=O)OC(CCCCCCCC)CCCCCCCC` [Compound 12, di(heptadecan-9-yl)6,6′-(((3R,4S)-1-(5-hydroxypentyl)pyrrolidine-3,4-diyl)bis(oxy))dihexanoate], in data set [3] (Table 1), the “LNP zeta potential (mV)” value was found to be 7.83 mV and the PDI was found to be 0.039. Besides, in data set [3] (z-average diameter, Table 1), the “LNP size (nm)” value stood at 78.35 nm. For the same compound, in data set [4], the “Encap)-sulation (%” value turned out to be 96.99%.

With `CCCCCCCCC(CCCCCCCC)OC(=O)CCCCO[C@H]1CN(CCCO)C[C@H]1OCCCCC(=O)OC(CCCCCCCC)CCCCCCCC` [Compound 3, di(heptadecan-9-yl)5,5′-(((3S,4R)-1-(3-hydroxypropyl)pyrrolidine-3,4-diyl)bis(oxy))dipentanoate], in data set [3] (Table 1), the “LNP zeta potential (mV)” value was determined as 6.98 mV and the PDI is 0.016. In addition, in data set [3] (z-average diameter, Table 1), the “LNP size (nm)” value was 98.84 nm. Also, the “Encap)-sulation (%” value in data set [4] came to 97.92%.

For the compound `CCCCCCC(CCCC)COC(=O)CCCCO[C@H]1CN(CCCO)C[C@H]1OCCCCC(=O)OCC(CCCC)CCCCCC` (stereo partly drawn) [Compound 20, bis(2-butyloctyl) 5,5′-(((3R,4S)-1-(3-hydroxypropyl)pyrrolidine-3,4-diyl)bis(oxy))dipentanoate], in data set [3] (Table 1), the “LNP zeta potential (mV)” value is 15.00 mV and the PDI amounted to 0.06. In addition, the “LNP size (nm)” value in data set [3] (z-average diameter, Table 1) was 88.33 nm. In addition, the “Encap)-sulation (%” value in data set [4] stood at 97.36%.

With `CCCCCCCCC(CCCCCCCC)OC(=O)CCCCCO[C@H]1CN(CCCCO)C[C@H]1OCCCCCC(=O)OC(CCCCCCCC)CCCCCCCC` [Compound 13, di(heptadecan-9-yl)6,6′-(((3R,4S)-1-(4-hydroxybutyl)pyrrolidine-3,4-diyl)bis(oxy))dihexanoate], in data set [3] (Table 1), the “LNP zeta potential (mV)” value is recorded as 12.45 mV and the PDI was 0.046. For the same compound, in data set [3] (z-average diameter, Table 1), the “LNP size (nm)” value is recorded as 81.29 nm. In data set [4], the “Encap)-sulation (%” value was found to be 97.39%.

Turning to `CCCCCCCCC(CCCCCCCC)OC(=O)CCCCCO[C@H]1CN(CCCO)C[C@H]1OCCCCCC(=O)OC(CCCCCCCC)CCCCCCCC` [Compound 11, di(heptadecan-9-yl)6,6′-(((3R,4S)-1-(3-hydroxypropyl)pyrrolidine-3,4-diyl)bis(oxy))dihexanoate], the “Cytotoxicity in HEPG2” value in the data set with HEPG2 cells [1] was “— (The toxicity of compounds 11 and 14 is less than 10%)”. Further, the “Transfection efficiency (relative to SM-102, %)” value in the data set on HEPG2 cells [2] is 100%. Besides, in data set [3] (Table 1), the “LNP zeta potential (mV)” value was determined as 10.95 mV and the PDI was 0.014. In data set [3] (Table 2), the “LNP size (nm)” value is listed as 80.71 nm, the “LNP zeta potential (mV)” value is given as 10.95 mV and the PDI is reported as 0.014. In addition, in data set [3] (z-average diameter, Table 1), the “LNP size (nm)” value worked out at 80.71 nm. Further, the “Encap)-sulation (%” value in data set [4] is 97.58%. For the same compound, the “Encapsulation (%)” value in data set [4] (Table 2) was found to be 97.58%.

With `CCCCCCCCCCC(CCCCCCCC)COC(=O)CCCCO[C@H]1CN(CCCCCO)C[C@H]1OCCCCC(=O)OCC(CCCCCCCC)CCCCCCCCCC` (stereo partly drawn) [Compound 18, bis(2-octyldodecyl)5,5′-(((3R,4S)-1-(5-hydroxypentyl)pyrrolidine-3,4-diyl)bis(oxy))dipentanoate], in data set [3] (Table 1), the “LNP zeta potential (mV)” value was 9.52 mV and the PDI is 0.03. Besides, the “LNP size (nm)” value in data set [3] (z-average diameter, Table 1) amounted to 86.61 nm. Also, in data set [4], the “Encap)-sulation (%” value came to 97.57%.

For the compound `CCCCCCCCC(CCCCCCCC)OC(=O)CCCCO[C@H]1CN(CCO)C[C@H]1OCCCCC(=O)OC(CCCCCCCC)CCCCCCCC` [Compound 4, di(heptadecan-9-yl)5,5′-(((3S,4R)-1-(2-hydroxyethyl)pyrrolidine-3,4-diyl)bis(oxy))dipentanoate], in data set [3] (Table 1), the “LNP zeta potential (mV)” value amounted to 1.03 mV and the PDI was found to be 0.015. Besides, in data set [3] (z-average diameter, Table 1), the “LNP size (nm)” value is recorded as 79.20 nm. The “Encap)-sulation (%” value in data set [4] amounted to 98.43%.

`CCCCCCC(CCCC)COC(=O)CCCCO[C@H]1CN(CCCCCO)C[C@H]1OCCCCC(=O)OCC(CCCC)CCCCCC` (stereo partly drawn) [Compound 21, bis(2-butyloctyl) 5,5′-(((3R,4S)-1-(5-hydroxypentyl)pyrrolidine-3,4-diyl)bis(oxy))dipentanoate]: in data set [3] (Table 1), the “LNP zeta potential (mV)” value was found to be 14.91 mV and the PDI came out at 0.0532. In data set [3] (z-average diameter, Table 1), the “LNP size (nm)” value was found to be 93.39 nm. Moreover, in data set [4], the “Encap)-sulation (%” value is recorded as 98.87%.
